Reference: US6441021B1, “Sulfonated amino acid derivatives and metalloproteinase inhibitors containing the same” (Shionogi & Co., Ltd., priority 1996, dated 2002)

system: not given; experiment: not given; details: not given

| SMILES | melting point [°C] |
| --- | --- |
| O=C(Nc1ccc(S(=O)(=O)N[C@H](Cc2c[nH]c3ccccc23)C(=O)O)cc1)c1ccc(Br)cc1 (hydrate or solvate) [Example 183] | 215 to 218 |
| O=C(Nc1ccc(S(=O)(=O)N[C@H](Cc2c[nH]c3ccccc23)C(=O)O)cc1)c1ccc([N+](=O)[O-])cc1 (hydrate or solvate) [Example 180] | 211 to 213 |
| COc1ccc(-n2nnc(-c3ccc(S(=O)(=O)N[C@H](Cc4c[nH]c5ccccc45)C(=O)O)cc3)n2)cc1 [Example 220] | 195 to 196 |
| CSc1ccc(-n2nnc(-c3ccc(S(=O)(=O)N[C@@H](C(=O)O)C(C)C)cc3)n2)cc1 (hydrate or solvate) [Example 245] | 194 to 195 |
| COc1ccc(C(=O)Nc2ccc(S(=O)(=O)N[C@@H](C(=O)O)C(C)C)cc2)cc1 (hydrate or solvate) [Example 200] | 220 to 221 |
| CC(C)[C@@H](NS(=O)(=O)c1ccc(-c2nnn(-c3ccc(F)cc3)n2)cc1)C(=O)O (hydrate or solvate) [Example 243] | 208 to 209 |
| O=C(O)[C@@H](Cc1ccccc1)NS(=O)(=O)c1ccc(-c2nnn(-c3ccc(C4CCCCC4)cc3)n2)cc1 (hydrate or solvate) [Example 237] | 225 to 227 |
| Cc1ccc(-n2nnc(-c3ccc(S(=O)(=O)N[C@H](Cc4ccccc4)C(=O)O)cc3)n2)cc1 (hydrate or solvate) [Example 233] | 226 to 227 |
| CC(C)[C@@H](NS(=O)(=O)c1ccc(NC(=O)c2ccccc2)cc1)C(=O)O (hydrate or solvate) [Example 199] | 226 to 227 |
| O=C(Nc1ccc(S(=O)(=O)N[C@H](Cc2c[nH]c3ccccc23)C(=O)O)cc1)c1ccc(F)cc1 (hydrate or solvate) [Example 185] | 170 to 175 |
| Cc1ccc(-n2nnc(-c3ccc(S(=O)(=O)N[C@@H](C(=O)O)C(C)C)cc3)n2)cc1 (hydrate or solvate) [Example 242] | 206 to 207 |
| CC(C)[C@@H](NS(=O)(=O)c1ccc(NC(=O)c2ccc([N+](=O)[O-])cc2)cc1)C(=O)O (hydrate or solvate) [Example 201] | 240 to 242 |
| COc1ccc(C(=O)Nc2ccc(S(=O)(=O)N[C@H](Cc3c[nH]c4ccccc34)C(=O)O)cc2)cc1 (hydrate or solvate) [Example 178] | 233 to 234 |
| CN(C)c1ccc(C(=O)Nc2ccc(S(=O)(=O)N[C@H](Cc3c[nH]c4ccccc34)C(=O)O)cc2)cc1 (hydrate or solvate) [Example 181] | 236 to 238 |
| CSc1ccc(-n2nnc(-c3ccc(S(=O)(=O)N[C@H](Cc4ccccc4)C(=O)O)cc3)n2)cc1 (hydrate or solvate) [Example 246] | 222 to 224 |
| O=C(O)[C@@H](Cc1ccccc1)NS(=O)(=O)c1ccc(-c2nnn(-c3ccc([N+](=O)[O-])cc3)n2)cc1 (hydrate or solvate) [Example 230] | 190 to 191 |
| Cc1ccc(C(=O)Nc2ccc(S(=O)(=O)N[C@H](Cc3c[nH]c4ccccc34)C(=O)O)cc2)cc1 (hydrate or solvate) [Example 182] | 240 to 244 |
| O=C(O)C(Cc1cccc2ccccc12)NS(=O)(=O)c1ccc(-c2nnn(-c3ccccc3)n2)cc1 (stereo not drawn) (hydrate or solvate) [Example 218] | 225 to 227 |
| CSc1ccc(-n2nnc(-c3ccc(S(=O)(=O)N[C@H](Cc4c[nH]c5ccccc45)C(=O)O)cc3)n2)cc1 (hydrate or solvate) [Example 247] | 213 to 216 |
| O=C(O)[C@@H](Cc1ccccc1)NS(=O)(=O)c1ccc(-c2nnn(-c3ccc(Cl)cc3)n2)cc1 (hydrate or solvate) [Example 232] | 204 to 206 |
| O=C(O)[C@@H](Cc1ccccc1)NS(=O)(=O)c1ccc(-c2nnn(-c3ccc(F)cc3)n2)cc1 (hydrate or solvate) [Example 231] | 205 to 207 |

biological target: T1, MMP-9 (92 kDa, gelatinase B; type IV collagenase) (Homo sapiens, UniProt P14780); experiment: Assay of type IV collagenase inhibitors: activated MMP-9 with type IV collagenase activity kit substrate, fluorescent intensity; format: biochemical; details: not given
T1 construct: endogenous in cells; enzyme purified from the conditioned medium
Description: (1) Isolation and Purification of MMP-9 (92 kDa, Gelatinase B)
Type IV collagenase (MMP-9) was purified according to the methods descrived in the following literature.
Subsequently, activated MMP-9 was obtained by treating the pro-MMP-9 with trypsin.
(2) Assay Methods of Type IV Collagenase Inhibitors
Collagenase assay was performed using the activated MMP-9 described above and the substrate supplied in the type IV collagenase activity kit (YAGAI, inc.), according to the manufacturer's protocol. The following 4 assays are performed per compound (inhibitor).
(A) substrate (type IV collagenase), enzyme (MMP-9), inhibitor
(B) substrate (type IV collagenase), inhibitor
(C) substrate (type IV collagenase), enzyme (MMP-9)
(D) substrate (type IV collagenase)
According to the manufacturer's protocol, fluorescent intensity was measured and percent inhibition was determined by the following equation.
Inhibition (%)={1−(A−B)/(C−D)}×100

T1 sequence (P14780 107-707 limits assumed): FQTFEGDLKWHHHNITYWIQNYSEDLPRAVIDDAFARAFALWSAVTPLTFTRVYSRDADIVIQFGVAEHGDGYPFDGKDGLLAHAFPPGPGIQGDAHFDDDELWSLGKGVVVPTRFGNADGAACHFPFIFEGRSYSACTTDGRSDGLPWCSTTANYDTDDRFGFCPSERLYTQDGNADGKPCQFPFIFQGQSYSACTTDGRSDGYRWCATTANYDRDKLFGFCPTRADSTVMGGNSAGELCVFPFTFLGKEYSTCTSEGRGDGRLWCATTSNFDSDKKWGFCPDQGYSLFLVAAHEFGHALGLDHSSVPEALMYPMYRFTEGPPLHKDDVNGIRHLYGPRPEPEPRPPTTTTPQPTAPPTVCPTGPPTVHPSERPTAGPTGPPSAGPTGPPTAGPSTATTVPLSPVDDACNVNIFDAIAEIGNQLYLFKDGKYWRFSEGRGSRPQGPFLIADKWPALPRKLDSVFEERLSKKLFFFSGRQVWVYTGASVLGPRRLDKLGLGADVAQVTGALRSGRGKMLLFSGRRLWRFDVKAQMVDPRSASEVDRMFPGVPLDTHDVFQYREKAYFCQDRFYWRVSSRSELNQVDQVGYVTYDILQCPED

| SMILES | IC50 [nM] |
| --- | --- |
| O=C(Nc1ccc(S(=O)(=O)N[C@H](Cc2c[nH]c3ccccc23)C(=O)O)cc1)c1ccc([N+](=O)[O-])cc1 [Example 180] | 45 |
| CC(C)[C@H](C(=O)O)N(CCCCN)S(=O)(=O)c1ccc(Oc2ccccc2)cc1 [Example 255] | 529 |
| COc1ccc(-n2nnc(-c3ccc(S(=O)(=O)N[C@H](Cc4ccccc4)C(=O)O)cc3)n2)cc1 [Example 234] | 153 |
| CC(C)[C@@H](NS(=O)(=O)c1ccc(NC(=O)c2ccc(-c3ccccc3)cc2)cc1)C(=O)O [Example 195] | 1100 |
| N#Cc1ccc(-n2nnc(-c3ccc(S(=O)(=O)N[C@H](Cc4ccccc4)C(=O)O)cc3)n2)cc1 [Example 235] | 265 |
| Cc1ccc(C(=O)Nc2ccc(S(=O)(=O)N[C@@H](C(=O)O)C(C)C)cc2)cc1 [Example 196] | 57.3 |
| Cc1ccc(C(=O)Nc2ccc(S(=O)(=O)N[C@H](Cc3c[nH]c4ccccc34)C(=O)O)cc2)cc1 [Example 182] | 5.9 |
| CN(C)c1ccc(C(=O)Nc2ccc(S(=O)(=O)N[C@H](Cc3c[nH]c4ccccc34)C(=O)O)cc2)cc1 [Example 181] | 53.9 |
| O=C(O)[C@@H](Cc1ccccc1)NS(=O)(=O)c1ccc(-c2nnn(-c3ccc([N+](=O)[O-])cc3)n2)cc1 [Example 230] | 281 |
| O=C(O)[C@@H](Cc1ccccc1)N(Cc1ccccc1)S(=O)(=O)c1ccc(-c2nnn(-c3ccccc3)n2)cc1 [Example 258] | 908 |

same assay, conditions: activated MMP-9, type IV collagenase activity kit substrate, fluorescent intensity; concentration at which percent inhibition reaches 50%

| SMILES | IC50 [nM] |
| --- | --- |
| O=C(NO)[C@@H](Cc1ccccc1)NS(=O)(=O)c1ccc([N+](=O)[O-])cc1 [Example 1b-1-27] | 3000 |
| CC(C)[C@@H](NS(=O)(=O)c1ccc(-c2ccc(C(C)(C)C)cc2)cc1)C(=O)O [Example 1a-1-44] | 1910 |
| COc1ccc(-c2ccc(S(=O)(=O)N[C@H](Cc3ccccc3)C(=O)O)cc2)cc1 [Example 1a-1-50] | 553 |
| CC(C)[C@@H](NS(=O)(=O)c1ccc(-c2ccccc2)cc1)C(=O)O [Example 1a-1-43] | 625 |
| O=C(NO)[C@@H](Cc1ccccc1)NS(=O)(=O)c1ccc(Oc2ccccc2)cc1 [Example 1b-1-60] | 1.2 |
| CC(C)[C@@H](NS(=O)(=O)c1ccc(Oc2ccccc2)cc1)C(=O)NO [Example 1b-1-63] | 0.39 |
| CC(C)[C@@H](NS(=O)(=O)c1ccc(-c2ccc(F)cc2)cc1)C(=O)O [Example 1a-1-48] | 1150 |
| O=C(NO)[C@H](Cc1c[nH]c2ccccc12)NS(=O)(=O)c1ccc(Oc2ccccc2)cc1 [Example 1b-1-62] | 3500 |

same assay, conditions: inhibition of type IV collagenase (MMP-9), concentration at which percent inhibition reaches 50%

| SMILES | IC50 [nM] |
| --- | --- |
| Nc1ccc(C#Cc2ccc(S(=O)(=O)N[C@H](Cc3c[nH]c4ccccc34)C(=O)O)cc2)cc1 [Example 1a-2-9] | 57.7 |
| O=C(O)[C@@H](Cc1ccccc1)NS(=O)(=O)c1ccc(C#Cc2ccc(F)cc2)s1 [Example 1a-2-38] | 222 |
| CC(C)[C@@H](NS(=O)(=O)c1ccc(-c2ccc(F)cc2)s1)C(=O)O [Example 1a-3-8] | 1280 |
| CSc1ccc(-n2nnc(-c3ccc(S(=O)(=O)N[C@@H](C(=O)O)C(C)C)cc3)n2)cc1 [Example 245] | 5.9 |
| O=C(O)[C@@H](Cc1c[nH]c2ccccc12)NS(=O)(=O)c1ccc(C#Cc2ccc([N+](=O)[O-])cc2)cc1 [Example 1a-2-7] | 69.9 |
| Cc1ccc(-c2ccc(S(=O)(=O)N[C@H](Cc3c[nH]c4ccccc34)C(=O)O)s2)cc1 [Example 1a-3-3] | 10.8 |
